Reference: PubChem BioAssay AID248 (DTP/NCI, 2004)
Where “and” joins values, the source holds several entries; their conditions need not be identical. Equal values may be shown once. Toxic doses and inconclusive results are not listed. No stated cut-off is given here; in the data, active means T/C of 150% or more; inactive means T/C below 125%.

System: L1210 leukemia ip in BDF1 mice, survival T/C
Assay: NCI In Vivo Anticancer Drug Screen. Data for tumor model L1210 Leukemia (intraperitoneal) in B6D2F1 (BDF1) mice
Details: endpoint: mean survival time, higher = longer survival
Outline: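 Tumor was transplanted into mice, which were then dosed with test compound or vehicle alone. Survival was recorded for each group, and the treated figure was expressed relative to the control figure.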

[1] = dose: 25.0 mg/kg/injection, schedule: Q04DX003 (ip), vehicle: saline with Tween-80
[2] = dose: 50.0 mg/kg/injection, schedule: Q04DX003 (ip), vehicle: saline with Tween-80
[3] = dose: 100.0 mg/kg/injection, schedule: Q04DX003 (ip), vehicle: saline with Tween-80
[4] = dose: 200.0 mg/kg/injection, schedule: Q04DX003 (ip), vehicle: saline with Tween-80
[5] = dose: 400.0 mg/kg/injection, schedule: Q04DX003 (ip), vehicle: saline with Tween-80
[6] = dose: 100.0 mg/kg/injection, schedule: Q01DX009 (ip), vehicle: Klucel (hydroxypropylcellulose) (HPC)
[7] = dose: 200.0 mg/kg/injection, schedule: Q01DX009 (ip), vehicle: Klucel (hydroxypropylcellulose) (HPC)
[8] = dose: 100.0 mg/kg/injection, schedule: Q04DX003 (ip), vehicle: Klucel (hydroxypropylcellulose) (HPC)
[9] = dose: 200.0 mg/kg/injection, schedule: Q04DX003 (ip), vehicle: Klucel (hydroxypropylcellulose) (HPC)
[10] = dose: 400.0 mg/kg/injection, schedule: Q01DX009 (ip), vehicle: Klucel (hydroxypropylcellulose) (HPC)
[11] = dose: 400.0 mg/kg/injection, schedule: Q04DX003 (ip), vehicle: Klucel (hydroxypropylcellulose) (HPC)
[12] = dose: 100.0 mg/kg/injection, schedule: Q01DX009 (ip), vehicle: saline with Tween-80
[13] = dose: 200.0 mg/kg/injection, schedule: Q01DX009 (ip), vehicle: saline with Tween-80
[14] = dose: 100.0 mg/kg/injection, schedule: Q01DX001 (ip), vehicle: saline
[15] = dose: 100.0 mg/kg/injection, schedule: Q04DX003 (ip), vehicle: saline
[16] = dose: 200.0 mg/kg/injection, schedule: Q04DX003 (ip), vehicle: saline
[17] = dose: 400.0 mg/kg/injection, schedule: Q04DX003 (ip), vehicle: saline
[18] = dose: 50.0 mg/kg/injection, schedule: Q01DX009 (ip), vehicle: saline with Tween-80

Measured: T/C

CCOC(OCC)c1nc(NC(C)=O)[nH]c(=O)c1CCCCc1ccccc1
inactive: dose: 200.0 mg/kg/injection, schedule: Q01DX001 (ip), vehicle: saline with Tween-80 88 % of control | dose: 400.0 mg/kg/injection, schedule: Q01DX001 (ip), vehicle: saline with Tween-80 91 % of control

O=C1NCC(Nc2ccc(Cl)cc2)C(=O)N1 (centres undefined)
inactive: dose: 100.0 mg/kg/injection, schedule: Q01DX Z (ip), vehicle: methylcellulose (MC) 89 % of control | dose: 200.0 mg/kg/injection, schedule: Q01DX Z (ip), vehicle: methylcellulose (MC) 92 % of control

CCOC(=O)CN(C(=O)OCc1ccccc1)N(C)C(=O)OCc1ccccc1
inactive: [1] 101 % of control | [2] 94 % of control | [3] 101 % of control | [4] 97 % of control | [5] 101 % of control

O/N=C(/C=C(/C(=C/C(=N/O)c1ccccc1)c1ccccc1)c1ccccc1)c1ccccc1
inactive: dose: 50.0 mg/kg/injection, schedule: Q01DX009 (ip), vehicle: Klucel (hydroxypropylcellulose) (HPC) 102 % of control | [6] 94 % of control | [7] 87 % of control

N#Cc1nc2ccccc2nc1C#N
inactive: dose: 12.5 mg/kg/injection, schedule: Q01DX009 (ip), vehicle: Klucel (hydroxypropylcellulose) (HPC) 102 % of control | dose: 12.5 mg/kg/injection, schedule: Q04DX003 (ip), vehicle: Klucel (hydroxypropylcellulose) (HPC) 97 % of control | dose: 25.0 mg/kg/injection, schedule: Q01DX009 (ip), vehicle: Klucel (hydroxypropylcellulose) (HPC) 102 % of control | dose: 25.0 mg/kg/injection, schedule: Q04DX003 (ip), vehicle: Klucel (hydroxypropylcellulose) (HPC) 88 % of control

CC(C)OC(=S)SCC(=O)O
inactive: [3] 97 % of control | [4] 93 % of control | [5] 93 % of control

CC(=O)CCN1C(=O)c2ccccc2C1=O
inactive: [6] 100 % of control | [8] 101 % of control | [7] 104 % of control | [9] 90 % of control | [10] 97 % of control | [11] 96 % of control

Oc1ccc(C(c2ccc(O)cc2)(C(F)(F)F)C(F)(F)F)cc1
inactive: [12] 105 % of control | dose: 100.0 mg/kg/injection, schedule: Q04DX003 (ip), vehicle: alcohol 101 % of control | [13] 97 % of control | dose: 200.0 mg/kg/injection, schedule: Q04DX003 (ip), vehicle: alcohol 95 % of control | dose: 400.0 mg/kg/injection, schedule: Q01DX009 (ip), vehicle: saline with Tween-80 109 % of control | dose: 400.0 mg/kg/injection, schedule: Q04DX003 (ip), vehicle: alcohol 102 % of control

COC(=O)CN(c1ccc(C#N)c2ccccc12)S(=O)(=O)c1ccccc1
inactive: [3] 94 % of control | [4] 96 % of control | [5] 94 % of control

COC(=O)c1ccccc1NN=Nc1ccccc1Cl
inactive: [14] 100 % of control | [15] 105 % of control | dose: 200.0 mg/kg/injection, schedule: Q01DX001 (ip), vehicle: saline 90 % of control | [16] 95 % of control | dose: 400.0 mg/kg/injection, schedule: Q01DX001 (ip), vehicle: saline 99 % of control | [17] 94 % of control

O=C(C(=O)N1CC1)c1c[nH]c2ccccc12
inactive: [1] 95 % of control | [2] 91 % of control | [3] 95 % of control

O=C1/C(=C\c2ccccc2)SC(=Nc2ccccc2)N1c1ccccc1
inactive: [6] 101 % of control | [8] 104 % of control | [7] 98 % of control | [9] 96 % of control | [10] 93 % of control | [11] 94 % of control

O=[N+]([O-])c1ccc(C[Se]c2ncnc3c2ccn3C2OC(CO)C(O)C2O)cc1 (centres undefined)
inactive: dose: 6.25 mg/kg/injection, schedule: Q01DX009 (ip), vehicle: saline 95 % of control | dose: 12.5 mg/kg/injection, schedule: Q01DX005 (ip), vehicle: saline 102 % of control | dose: 12.5 mg/kg/injection, schedule: Q01DX009 (ip), vehicle: saline 91 % of control | dose: 25.0 mg/kg/injection, schedule: Q01DX005 (ip), vehicle: saline 105 % of control | dose: 25.0 mg/kg/injection, schedule: Q01DX009 (ip), vehicle: saline 102 % of control

COc1cc2c(cc1O)CCCC2=O
inactive: [18] 96 % of control | [12] 93 % of control | [13] 96 % of control

N#CC(NC(=O)c1ccccc1)SCc1ccccc1 (centres undefined)
inactive: dose: 25.0 mg/kg/injection, schedule: Q04DX002 (ip), vehicle: Klucel (hydroxypropylcellulose) (HPC) 107 % of control | dose: 50.0 mg/kg/injection, schedule: Q04DX002 (ip), vehicle: Klucel (hydroxypropylcellulose) (HPC) 91 % of control | dose: 100.0 mg/kg/injection, schedule: Q04DX002 (ip), vehicle: Klucel (hydroxypropylcellulose) (HPC) 91 % of control

O=NN(C(=O)Nc1ccccc1)c1ccccc1
inactive: dose: 2.0 mg/kg/injection, schedule: Q01DX001 (ip), vehicle: carboxymethylcellulose (CMC) 106 % of control | dose: 4.0 mg/kg/injection, schedule: Q01DX001 (ip), vehicle: carboxymethylcellulose (CMC) 112 % of control | dose: 6.0 mg/kg/injection, schedule: Q01DX001 (ip), vehicle: carboxymethylcellulose (CMC) 112 % of control | dose: 8.0 mg/kg/injection, schedule: Q01DX001 (ip), vehicle: carboxymethylcellulose (CMC) 110 % of control | dose: 10.0 mg/kg/injection, schedule: Q01DX001 (ip), vehicle: carboxymethylcellulose (CMC) 104 % of control | dose: 12.5 mg/kg/injection, schedule: Q01DX001 (ip), vehicle: carboxymethylcellulose (CMC) 108 % of control | dose: 25.0 mg/kg/injection, schedule: Q01DX001 (ip), vehicle: carboxymethylcellulose (CMC) 100 % of control | dose: 50.0 mg/kg/injection, schedule: Q01DX001 (ip), vehicle: carboxymethylcellulose (CMC) 102 % of control | dose: 100.0 mg/kg/injection, schedule: Q01DX001 (ip), vehicle: carboxymethylcellulose (CMC) 108 % of control

CC(=O)/C(=C\c1ccccc1)CNC(C)(C)C
inactive: [14] 92 % of control

CC(=O)N(C)c1cc(N)ccc1OCc1ccccc1
inactive: dose: 12.5 mg/kg/injection, schedule: Q04DX003 (ip), vehicle: saline with Tween-80 91 % of control | dose: 25.0 mg/kg/injection, schedule: Q01DX009 (ip), vehicle: saline with Tween-80 100 % of control | [1] 98 % of control and 101 % of control | [18] 96 % of control | [2] 95 % of control and 102 % of control | [12] 102 % of control | [3] 95 % of control and 113 % of control | [4] 97 % of control

COC(=O)CC1C(=O)C(C)(C(=O)OC)CCC1c1ccc(OC)cc1 (centres undefined)
inactive: dose: 100.0 mg/kg/injection, schedule: Q01DX009 (ip), vehicle: saline 96 % of control | [15] 100 % of control | dose: 200.0 mg/kg/injection, schedule: Q01DX009 (ip), vehicle: saline 90 % of control | [16] 94 % of control | dose: 400.0 mg/kg/injection, schedule: Q01DX009 (ip), vehicle: saline 93 % of control | [17] 94 % of control
